These results are taken from patent publication US11981674B1, “7-isopropyl 1-ethyl/methyl 3-(substituted benzoyl)-2-substituted indolizine-1,7-dicarboxylates as larvicidal agents” (KING FAISAL UNIVERSITY, priority 2023, dated 2024).

Like-named read-outs stand apart in the source and are kept apart here.

The series has as its system Anopheles arabiensis. The series is described as follows: Larvicidal screening (WHO protocol), 3rd instar larvae. The format is in vivo. The note with it: for mortality at 4 µg/mL: Anopheles arabiensis. On the procedure:
Anopheles arabiensis was used in the study according to the protocol described by WHO (1975) guidelines in an insectary simulating the temperature (27.5° C.), humidity (70%), and lighting (12/12) of a malaria-endemic environment. One mL of test compound (1 mg/mL) was added to 1 mL of acetone and followed by […] of distilled water to obtain a final concentration of 4 μg/mL. Thirty individuals of 3rd instar larvae were introduced into a container. Negative control was set up using the solvent (acetone) and distilled water, and a positive control included Temephos, which is an active emulsified organophosphate larvicidal used by malaria control programs. Larval mortality was examined for each container separately for 24 h and fed specially made cat food that contained less oil/fat content. The percentage of mortality was determined relative to the initial number of larvae exposed.
Differences in larval mortality between treatments were assessed with generalized linear models using a quasi-Poisson link function. Anopheles arabiensis mortality was the dependent variable, while fixed effects were test compounds and observation period (24 and 48 h). A p-value <0.05 was considered statistically significant. Throughout the text, the results are presented as the adjusted mean±the standard error.

[1] abbreviates: 24 h, read-out: larval mortality rate in 24 hours.
Where [2] appears, read: 48 h, read-out: larval mortality rate in 48 hours.

On to “1-Ethyl 7-isopropyl 3-(3,5-bis(trifluoromethyl)benzoyl)indolizine-1,7-dicarboxylate [Compound 3m]”, for which, under “Anopheles arabiensis larvae exposed 24 h, 4 μg/mL, adjusted mean ± standard error”, the “Mortality 24 h” value was determined as 93.45 ± 1.29%. Moreover, the “Mortality 48 h” value (Anopheles arabiensis larvae exposed 48 h, 4 μg/mL, adjusted mean ± standard error) is given as 96.12 ± 1.90%. For the same compound, for the setting “in 24 hours”, the “larval mortality rate in 24 hours” value stood at 93.45±1.29. In addition, the “larval mortality rate in 48 hours” value (in 48 hours) stood at 96.12±1.90.

With `COC(=O)c1c(C(=O)OC)c2cc(C(=O)OC(C)C)ccn2c1C(=O)c1ccccc1` [Compound 3a, 7-Isopropyl 1,2-dimethyl 3-benzoylindolizine-1,2,7-tricarboxylate], the mortality at 4 µg/mL by setting is: (24 h, read-out: Mortality 24 h) 39.2 ± 1.64%; under setting [1], 39.2 ± 1.64%; (48 h, read-out: Mortality 48 h) 45.5 ± 2.65%; under setting [2], 45.5 ± 2.65%.

Take `CCOC(=O)c1cc(C(=O)c2ccccc2)n2ccc(C(=O)OC(C)C)cc12` [Compound 3b, 1-Ethyl 7-isopropyl 3-benzoylindolizine-1,7-dicarboxylate]: the mortality at 4 µg/mL (24 h, read-out: Mortality 24 h) amounted to 32.6 ± 2.44%; the mortality at 4 µg/mL under setting [1] turned out to be 32.6 ± 2.44%; the mortality at 4 µg/mL (48 h, read-out: Mortality 48 h) stood at 36.8 ± 1.79%; the mortality at 4 µg/mL under setting [2] came out at 36.8 ± 1.79%.

As for `COC(=O)c1c(C(=O)OC)c2cc(C(=O)OC(C)C)ccn2c1C(=O)c1ccc(F)cc1` [Compound 3c, 7-Isopropyl 1,2-dimethyl 3-(4-fluorobenzoyl)indolizine-1,2,7-tricarboxylate], the mortality at 4 µg/mL reads like this: (24 h, read-out: Mortality 24 h) 79.1 ± 1.65%; under setting [1], 79.1 ± 1.65%; (48 h, read-out: Mortality 48 h) 82.3 ± 2.71%; under setting [2], 82.3 ± 2.71%.

Turning to `CCOC(=O)c1cc(C(=O)c2ccc(F)cc2)n2ccc(C(=O)OC(C)C)cc12` [Compound 3d, 1-Ethyl 7-isopropyl 3-(4-fluorobenzoyl)indolizine-1,7-dicarboxylate], the mortality at 4 µg/mL reads like this: (24 h, read-out: Mortality 24 h) 87.3 ± 1.64%; under setting [1], 87.3 ± 1.64%; (48 h, read-out: Mortality 48 h) 91.2 ± 3.18%; under setting [2], 91.2 ± 3.18%.

In the case of `COC(=O)c1c(C(=O)OC)c2cc(C(=O)OC(C)C)ccn2c1C(=O)c1ccc(Cl)cc1` [Compound 3e, 7-Isopropyl 1,2-dimethyl 3-(4-chlorobenzoyl)indolizine-1,2,7-tricarboxylate], the mortality at 4 µg/mL by setting is: (24 h, read-out: Mortality 24 h) 67.9 ± 2.91%; under setting [1], 67.9 ± 2.91%; (48 h, read-out: Mortality 48 h) 70.9 ± 1.67%; under setting [2], 70.9 ± 1.67%.

For `CCOC(=O)c1cc(C(=O)c2ccc(Cl)cc2)n2ccc(C(=O)OC(C)C)cc12` [Compound 3f, 1-Ethyl 7-isopropyl 3-(4-chlorobenzoyl)indolizine-1,7-dicarboxylate], the mortality at 4 µg/mL reads like this: (24 h, read-out: Mortality 24 h) 66 ± 2.94%; under setting [1], 66 ± 2.94%; (48 h, read-out: Mortality 48 h) 69.2 ± 2.47%; under setting [2], 69.2 ± 2.47%.

Regarding `COC(=O)c1c(C(=O)OC)c2cc(C(=O)OC(C)C)ccn2c1C(=O)c1ccc(Br)cc1` [Compound 3g, 7-Isopropyl 1,2-dimethyl 3-(4-bromobenzoyl)indolizine-1,2,7-tricarboxylate], the mortality at 4 µg/mL was found to be 89.4 ± 2.42% (24 h, read-out: Mortality 24 h); 89.4 ± 2.42% under setting [1]; 91.1 ± 2.21% (48 h, read-out: Mortality 48 h); 91.1 ± 2.21% under setting [2].

For `CCOC(=O)c1cc(C(=O)c2ccc(Br)cc2)n2ccc(C(=O)OC(C)C)cc12` [Compound 3h, 1-Ethyl 7-isopropyl 3-(4-bromobenzoyl)indolizine-1,7-dicarboxylate], the mortality at 4 µg/mL stood at 82.3 ± 1.23% (24 h, read-out: Mortality 24 h); 82.3 ± 1.23% under setting [1]; 86.7 ± 1.39% (48 h, read-out: Mortality 48 h); 86.7 ± 1.39% under setting [2].

Consider `COC(=O)c1c(C(=O)OC)c2cc(C(=O)OC(C)C)ccn2c1C(=O)c1ccc(C#N)cc1` [Compound 3i, 7-isopropyl 1,2-dimethyl 3-(4-cyanobenzoyl)indolizine-1,2,7-tricarboxylate], for which the mortality at 4 µg/mL (24 h, read-out: Mortality 24 h) is 62.4 ± 1.8%; the mortality at 4 µg/mL under setting [1] was 62.4 ± 1.8%; the mortality at 4 µg/mL (48 h, read-out: Mortality 48 h) stood at 63.8 ± 1.9%; the mortality at 4 µg/mL under setting [2] was 63.8 ± 1.9%.

In the case of `CCOC(=O)c1cc(C(=O)c2ccc(C#N)cc2)n2ccc(C(=O)OC(C)C)cc12` [Compound 3j, 1-Ethyl 7-isopropyl 3-(4-cyanobenzoyl)indolizine-1,7-dicarboxylate], the mortality at 4 µg/mL came to 61.6 ± 1.23% (24 h, read-out: Mortality 24 h); 61.6 ± 1.23% under setting [1]; 66.1 ± 2.62% (48 h, read-out: Mortality 48 h); 66.1 ± 2.62% under setting [2].

With `COC(=O)c1c(C(=O)OC)c2cc(C(=O)OC(C)C)ccn2c1C(=O)c1ccc(C)cc1` [Compound 3k, 7-Isopropyl 1,2-dimethyl 3-(4-methylbenzoyl)indolizine-1,2,7-tricarboxylate], the mortality at 4 µg/mL is, setting by setting: (24 h, read-out: Mortality 24 h) 57.5 ± 1.32%; under setting [1], 57.5 ± 1.32%; (48 h, read-out: Mortality 48 h) 60 ± 1.87%; under setting [2], 60 ± 1.87%.

With `COC(=O)c1c(C(=O)OC)c2cc(C(=O)OC(C)C)ccn2c1C(=O)c1cc(C(F)(F)F)cc(C(F)(F)F)c1` [Compound 3l, 7-Isopropyl 1,2-dimethyl 3-(3,5-bis(trifluoromethyl)benzoyl)indolizine-1,2,7-tricarboxylate], the mortality at 4 µg/mL reads like this: (24 h, read-out: Mortality 24 h) 97.2 ± 2.3%; under setting [1], 97.2 ± 2.3%; (48 h, read-out: Mortality 48 h) 99.5 ± 1.49%; under setting [2], 99.5 ± 1.49%.

In the case of `COP(=S)(OC)Oc1ccc(Sc2ccc(OP(=S)(OC)OC)cc2)cc1` [Temephos, reference compound], the mortality at 4 µg/mL worked out at 98.3% (24 h, read-out: Mortality 24 h) and 100% (48 h, read-out: Mortality 48 h).

By mortality is commonly meant the percentage killed.
